Laboratory results: publication PMC9120017, “Inhibition mechanism of the chloride channel TMEM16A by the pore blocker 1PBC” (Nature Communications, 2022)
Read-outs that look alike come from different tables or passages of the source.

Target: T1, mouse TMEM16A mutant V543A (Mus musculus, UniProt Q8BHY3, V543A)
T1 construct: expressed in transfected cells; host or cells: HEK293T
T1 sequence (Q8BHY3 1-960 V543A): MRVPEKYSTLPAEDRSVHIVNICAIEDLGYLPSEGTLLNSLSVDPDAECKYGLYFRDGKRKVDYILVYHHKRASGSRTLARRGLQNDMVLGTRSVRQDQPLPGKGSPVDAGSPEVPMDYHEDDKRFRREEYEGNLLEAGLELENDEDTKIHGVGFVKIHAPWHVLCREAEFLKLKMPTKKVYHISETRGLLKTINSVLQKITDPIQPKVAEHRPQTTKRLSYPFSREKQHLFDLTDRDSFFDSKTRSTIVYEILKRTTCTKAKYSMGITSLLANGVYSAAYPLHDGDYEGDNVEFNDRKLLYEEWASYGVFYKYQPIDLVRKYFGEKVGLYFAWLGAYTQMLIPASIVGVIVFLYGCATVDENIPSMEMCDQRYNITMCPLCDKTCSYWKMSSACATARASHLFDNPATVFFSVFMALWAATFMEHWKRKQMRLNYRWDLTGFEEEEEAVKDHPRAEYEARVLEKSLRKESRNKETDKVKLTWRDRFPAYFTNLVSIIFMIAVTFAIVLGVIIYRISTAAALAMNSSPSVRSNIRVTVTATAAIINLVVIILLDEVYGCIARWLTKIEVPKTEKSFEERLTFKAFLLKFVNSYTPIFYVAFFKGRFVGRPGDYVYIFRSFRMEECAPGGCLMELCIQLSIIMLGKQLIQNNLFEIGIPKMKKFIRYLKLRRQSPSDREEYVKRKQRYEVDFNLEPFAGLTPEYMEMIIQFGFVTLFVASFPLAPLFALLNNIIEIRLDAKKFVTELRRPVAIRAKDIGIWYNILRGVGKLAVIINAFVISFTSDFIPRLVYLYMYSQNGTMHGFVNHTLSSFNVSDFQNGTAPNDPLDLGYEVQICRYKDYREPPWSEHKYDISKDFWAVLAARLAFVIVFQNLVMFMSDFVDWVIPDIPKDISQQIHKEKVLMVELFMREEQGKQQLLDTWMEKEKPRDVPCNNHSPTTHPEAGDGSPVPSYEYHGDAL
Experiment: Inside-out patch recording of 1PBC block, mutant V543A
Format: cell-based
Settings: for remaining activity at 100 µM: 100 µM 1PBC
Experimental: HEK293T cells (ATCC CRL-1573) were maintained in Dulbecco’s modified Eagle’s medium (DMEM; Sigma-Aldrich) supplemented with 10 U ml^−1 penicillin, 0.1 mg ml^−1 streptomycin (Sigma-Aldrich), 2 mM L-glutamine (Sigma-Aldrich), and 10% FBS (Sigma-Aldrich) in a humidified atmosphere containing 5% CO2 at 37 °C. HEK293S GnTI^− cells (ATCC CRL-3022) were maintained in HyClone HyCell TransFx-H medium (GE Healthcare) supplemented with 10 U ml^−1 penicillin, 0.1 mg ml^−1 streptomycin, 4 mM L-glutamine, 0.15% poloxamer 188 (Sigma-Aldrich), and 1% FBS in an atmosphere containing 5% CO2 at 185 rpm at 37 °C. The ac splice variant of mouse TMEM16A (UniProt ID: Q8BHY3), mouse TMEM16B (UniProt ID: Q8CFW1), or mouse TMEM16F (UniProt ID: Q6P9J9) bearing a 3C cleavage site, a Venus YFP, a Myc tag, and a Streptavidin-binding peptide (SBP) downstream of the open reading frame in a modified pcDNA3.1 vector (Invitrogen) were used as described previously[21],[31]. Mutations were introduced using a modified QuikChange method[58] and were verified by sequencing.
HEK293T cells were transfected with 3–4 μg DNA per 6 cm Petri dish using the calcium phosphate co-precipitation method and were used within 24–96 h after transfection. Recordings were performed on inside-out patches excised from HEK293T cells expressing the construct of interest. Patch pipettes were pulled from borosilicate glass capillaries (O.D. 1.5 mm, I.D. 0.86 mm, Sutter Instrument) and were fire-polished with a microforge (Narishige) before use. Pipette resistance was typically 3–8 MΩ when filled with the recording solutions detailed below. Seal resistance was typically 4 GΩ or higher. Voltage-clamp recordings were made using Axopatch 200B, Digidata 1550, and Clampex 10.7 (Molecular Devices). Analog signals were filtered with the in-built 4-pole Bessel filter at 10 kHz and were digitized at 20 kHz. Solution exchange was achieved using a gravity-fed system through a theta glass pipette mounted on an ultra-fast piezo-driven stepper (Siskiyou). […] All recordings were performed at 20 °C.
A symmetrical ionic condition was used throughout. Stock solution with Ca^2+-EGTA contained 150 mM NaCl, 5.99 mM Ca(OH)2, 5 mM EGTA, and 10 mM HEPES at pH 7.40. Stock solution with EGTA contained 150 mM NaCl, 5 mM EGTA, and 10 mM HEPES at pH 7.40. Free Ca^2+ concentrations were adjusted by mixing the stock solutions at the required ratios calculated using the WEBMAXC program (http://web.stanford.edu/~cpatton/webmaxcS.htm). Patch pipettes were filled with the stock solution with Ca^2+-EGTA, which has a free Ca^2+ concentration of 1 mM. 1PBC (ChemBridge) stock was reconstituted in anhydrous DMSO (Sigma-Aldrich) at 100 mM and stored at −20 °C. Working solutions with 1PBC were prepared by serial dilution. Unless otherwise stated, experiments were performed at a saturating Ca^2+ concentration as shown in Supplementary Table 1 and the primary data were corrected for current rundown as described previously[21],[25].
Concentration-response relations, obtained from the ratio of the I-V plots before and after the application of the blocker, were fitted to the Hill equation,1 I/Imax=1/1+IC50/[blocker]^h where I/Imax is the normalized current responses, IC50 defines the concentration at which inhibition is at its half-maximum, and h is the Hill coefficient.

`N#Cc1c(C(F)(F)F)cc(O)n2c1nc1ccccc12` [1PBC] was tested, and the IC50 (0 mV, 15 µM Ca2+) was 11.2 µM, the remaining activity at 3 µM (3 µM 1PBC, +80 mV, saturating Ca2+ (15 µM), read-out: I/Imax) was 76.2% and the remaining activity at 3 µM (3 µM 1PBC, -80 mV, saturating Ca2+ (15 µM), read-out: I/Imax) was 86.2%. The remaining activity at 10 µM (10 µM 1PBC, +80 mV, saturating Ca2+ (15 µM), read-out: I/Imax) was 42.8%, the remaining activity at 10 µM (10 µM 1PBC, -80 mV, saturating Ca2+ (15 µM), read-out: I/Imax) was 67.5% and the remaining activity at 30 µM (30 µM 1PBC, +80 mV, saturating Ca2+ (15 µM), read-out: I/Imax) was 20.1%. It also gave a remaining activity at 30 µM (30 µM 1PBC, -80 mV, saturating Ca2+ (15 µM), read-out: I/Imax) of 43.8%, a remaining activity at 100 µM (+80 mV, saturating Ca2+ (15 µM), read-out: I/Imax) of 6.35% and a remaining activity at 100 µM (-80 mV, saturating Ca2+ (15 µM), read-out: I/Imax) of 18.7%. The remaining activity at 3 µM (1PBC 3, 0 mV, read-out: fraction of unblocked current) was 79.2%, the remaining activity at 3 µM (1PBC 3, 20 mV, read-out: fraction of unblocked current) was 77.2% and the remaining activity at 3 µM (1PBC 3, 40 mV, read-out: fraction of unblocked current) was 76.3%. The remaining activity at 3 µM (1PBC 3, 60 mV, read-out: fraction of unblocked current) was 75.5%, the remaining activity at 3 µM (1PBC 3, 80 mV, read-out: fraction of unblocked current) was 76.2% and the remaining activity at 3 µM (1PBC 3, 100 mV, read-out: fraction of unblocked current) was 78.6%. The remaining activity at 3 µM (1PBC 3, 120 mV, read-out: fraction of unblocked current) was 80.1%, the remaining activity at 3 µM (1PBC 3, 140 mV, read-out: fraction of unblocked current) was 83.1% and the remaining activity at 3 µM (1PBC 3, -20 mV, read-out: fraction of unblocked current) was 81.1%. For the same compound, the remaining activity at 3 µM (1PBC 3, -40 mV, read-out: fraction of unblocked current) was 83.5%, the remaining activity at 3 µM (1PBC 3, -60 mV, read-out: fraction of unblocked current) was 84.9% and the remaining activity at 3 µM (1PBC 3, -80 mV, read-out: fraction of unblocked current) was 86.2%. The remaining activity at 3 µM (1PBC 3, -100 mV, read-out: fraction of unblocked current) was 87.3%, the remaining activity at 3 µM (1PBC 3, -120 mV, read-out: fraction of unblocked current) was 88.4% and the remaining activity at 3 µM (1PBC 3, -140 mV, read-out: fraction of unblocked current) was 89.4%. The remaining activity at 10 µM (1PBC 10, 0 mV, read-out: fraction of unblocked current) was 52.5%, the remaining activity at 10 µM (1PBC 10, 20 mV, read-out: fraction of unblocked current) was 48.7% and the remaining activity at 10 µM (1PBC 10, 40 mV, read-out: fraction of unblocked current) was 45.6%. The remaining activity at 10 µM (1PBC 10, 60 mV, read-out: fraction of unblocked current) was 43.7%, the remaining activity at 10 µM (1PBC 10, 80 mV, read-out: fraction of unblocked current) was 42.8% and the remaining activity at 10 µM (1PBC 10, 100 mV, read-out: fraction of unblocked current) was 43.3%. It also gave a remaining activity at 10 µM (1PBC 10, 120 mV, read-out: fraction of unblocked current) of 44.7%, a remaining activity at 10 µM (1PBC 10, 140 mV, read-out: fraction of unblocked current) of 45.8% and a remaining activity at 10 µM (1PBC 10, -20 mV, read-out: fraction of unblocked current) of 56.4%. It also gave a remaining activity at 10 µM (1PBC 10, -40 mV, read-out: fraction of unblocked current) of 60.6%, a remaining activity at 10 µM (1PBC 10, -60 mV, read-out: fraction of unblocked current) of 64.3% and a remaining activity at 10 µM (1PBC 10, -80 mV, read-out: fraction of unblocked current) of 67.5%. For the same compound, the remaining activity at 10 µM (1PBC 10, -100 mV, read-out: fraction of unblocked current) was 70.7%, the remaining activity at 10 µM (1PBC 10, -120 mV, read-out: fraction of unblocked current) was 73.2% and the remaining activity at 10 µM (1PBC 10, -140 mV, read-out: fraction of unblocked current) was 75.5%. For the same compound, the remaining activity at 30 µM (1PBC 30, 0 mV, read-out: fraction of unblocked current) was 27.4%, the remaining activity at 30 µM (1PBC 30, 20 mV, read-out: fraction of unblocked current) was 23.9% and the remaining activity at 30 µM (1PBC 30, 40 mV, read-out: fraction of unblocked current) was 21.7%. For the same compound, the remaining activity at 30 µM (1PBC 30, 60 mV, read-out: fraction of unblocked current) was 20.8%, the remaining activity at 30 µM (1PBC 30, 80 mV, read-out: fraction of unblocked current) was 20.1% and the remaining activity at 30 µM (1PBC 30, 100 mV, read-out: fraction of unblocked current) was 20.1%. For the same compound, the remaining activity at 30 µM (1PBC 30, 120 mV, read-out: fraction of unblocked current) was 21.6%, the remaining activity at 30 µM (1PBC 30, 140 mV, read-out: fraction of unblocked current) was 22.4% and the remaining activity at 30 µM (1PBC 30, -20 mV, read-out: fraction of unblocked current) was 30.9%. It also gave a remaining activity at 30 µM (1PBC 30, -40 mV, read-out: fraction of unblocked current) of 34.9%.
